Counter-ions that a name gives are not always drawn.
Columns and labels:
[1] = target: serotonin 5-HT2A receptor (Human Cortex) (Homo sapiens (Human), UniProt P28223); assay: Serotonin, 5HT2A (human) binding assay; details: radioligand [3H]-Ketanserin
Description: Serotonin, 5HT2A (human) binding assay
Materials and Methods: • Receptor Source: Human Cortex • Radioligand: [^3H]-Ketanserin (60-90 Ci/mmol) • Control Compound: Ketanserin • Incubation Conditions: The reactions were carried out in 50 mM TRIS-HCl (pH 7.6) at room temperature for 90 minutes. The reaction was terminated by rapid vacuum filtration onto glass fiber filters. Radioactivity trapped onto the filters was determined and compared to control values in order to ascertain any interactions of test compounds with the serotonin-5HT2A binding site (Literature Reference: Leysen, J. E. et al. Mol. Pharmacol. 1982, 21, 301-314; Martin, G. R. and Humphrey, P. P. A. Neuropharmacol. 1994, 33(3/4), 261-273.)
(§1) The radioligand binding assays for dopamine-D2S, serotonin-5HT1A and serotonin-5HT2A were carried out at six different concentrations and the test concentrations were 0.5 nM, 1 nM, 10 nm, 100 nM, 300 nM and 1000 nM.

[2] = target: serotonin 5-HT1A receptor (human recombinant expressed in HEK-293 cells) (Homo sapiens (Human), UniProt P08908); assay: Serotonin, 5HT1A (human recombinant) binding assay; details: radioligand [3H]-8-OH-DPAT; human recombinant in HEK-293 cells
Chain of serotonin 5-HT1A receptor (human recombinant expressed in HEK-293 cells) (P08908 whole entry): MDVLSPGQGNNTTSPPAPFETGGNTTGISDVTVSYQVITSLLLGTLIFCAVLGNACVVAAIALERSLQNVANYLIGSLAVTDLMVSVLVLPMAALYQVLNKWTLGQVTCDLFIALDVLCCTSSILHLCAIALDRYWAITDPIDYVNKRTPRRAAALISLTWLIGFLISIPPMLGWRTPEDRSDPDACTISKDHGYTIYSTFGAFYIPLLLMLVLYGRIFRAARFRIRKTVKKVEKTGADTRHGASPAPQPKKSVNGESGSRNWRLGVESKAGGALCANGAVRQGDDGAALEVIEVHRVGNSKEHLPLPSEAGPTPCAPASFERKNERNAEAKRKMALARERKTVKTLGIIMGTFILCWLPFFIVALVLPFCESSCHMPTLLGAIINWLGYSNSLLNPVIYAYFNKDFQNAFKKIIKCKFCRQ
Description: Serotonin, 5HT1A (human recombinant) binding assay
Materials and Methods: • Receptor Source: Human recombinant expressed in HEK-293 cells • Radioligand: [^3H]-8-OH-DPAT (221 Ci/mmol) • Control Compound: 8-OH-DPAT • Incubation Conditions: The reactions were carried out in 50 mM TRIS-HCl (pH 7.4) containing 10 mM MgSO4, 0.5 mM EDTA and 0.1% Ascorbic acid at room temperature for 1 hour. The reaction was terminated by rapid vacuum filtration onto glass fiber filters. Radioactivity trapped onto the filters was determined and compared to control values in order to ascertain any interactions of test compounds with the cloned serotonin—5HT1A binding site (Literature Reference: Hoyer, D. et al. Eur. Journal Pharmacol. 1985, 118, 13-23; Schoeffter, P. and Hoyer, D. Naunyn-Schmiedeberg's Arch. Pharmac. 1989, 340, 135-138)
as §1

[3] = target: dopamine D2S receptor (human recombinant expressed in CHO cells) (Homo sapiens (Human), UniProt P14416); assay: Dopamine, D2S (human recombinant) binding assay; details: radioligand [3H]Spiperone
Chain of dopamine D2S receptor (human recombinant expressed in CHO cells) (P14416 other isoform, or with tags, fused parts or gaps): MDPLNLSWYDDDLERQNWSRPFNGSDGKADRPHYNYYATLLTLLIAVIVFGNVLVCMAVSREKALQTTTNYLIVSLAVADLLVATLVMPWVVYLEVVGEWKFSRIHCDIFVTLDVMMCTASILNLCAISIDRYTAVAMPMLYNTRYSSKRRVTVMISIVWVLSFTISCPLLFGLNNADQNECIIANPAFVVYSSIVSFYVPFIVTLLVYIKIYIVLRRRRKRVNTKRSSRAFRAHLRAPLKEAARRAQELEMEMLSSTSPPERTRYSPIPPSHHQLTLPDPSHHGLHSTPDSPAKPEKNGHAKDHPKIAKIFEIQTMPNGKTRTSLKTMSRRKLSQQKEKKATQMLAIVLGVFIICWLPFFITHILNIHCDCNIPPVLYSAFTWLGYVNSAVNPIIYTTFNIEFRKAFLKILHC
Description: Dopamine, D2S (human recombinant) binding assay
Materials and Methods: • Receptor Source: Human recombinant expressed in CHO cells • Radioligand: [^3H]Spiperone (20-60 Ci/mmol) • Control Compound: Haloperidol • Incubation Conditions: The reactions were carried out in 50 mM TRIS-HCl (pH 7.4) containing 120 mM NaCl, 5 mM KCl, 5 mM MgCl2, 1 mM EDTA for 60 minutes at 25 C. The reaction was terminated by rapid vacuum filtration onto glass fiber filters. Radioactivity trapped onto the filters was determined and compared to control values in order to ascertain any interactions of test compounds with the cloned dopamine—D2 short binding site (Literature Reference: Jarvis, K. R. et al. Journal of Receptor Research 1993, 13(1-4), 573-590; Gundlach, A. L. et al. Life Sciences 1984, 35, 1981-1988.)
as §1

Chain of serotonin 5-HT2A receptor (Human Cortex) (P28223 whole entry): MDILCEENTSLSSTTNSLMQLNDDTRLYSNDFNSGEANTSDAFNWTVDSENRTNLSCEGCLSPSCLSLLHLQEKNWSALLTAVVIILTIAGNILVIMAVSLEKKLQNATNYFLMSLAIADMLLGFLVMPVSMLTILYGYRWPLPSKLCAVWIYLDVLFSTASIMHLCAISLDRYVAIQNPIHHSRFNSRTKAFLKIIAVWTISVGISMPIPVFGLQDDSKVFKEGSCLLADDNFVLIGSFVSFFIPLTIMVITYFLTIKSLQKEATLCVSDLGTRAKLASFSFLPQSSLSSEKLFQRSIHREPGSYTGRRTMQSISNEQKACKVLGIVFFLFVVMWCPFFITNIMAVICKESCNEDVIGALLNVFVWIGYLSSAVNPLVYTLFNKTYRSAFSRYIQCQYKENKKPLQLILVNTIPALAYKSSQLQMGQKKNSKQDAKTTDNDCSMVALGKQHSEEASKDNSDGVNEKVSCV

| SMILES | IC50 [1] [nM] | Ki [1] [nM] | IC50 [2] [nM] | Ki [2] [nM] | IC50 [3] [nM] | Ki [3] [nM] |
| --- | --- | --- | --- | --- | --- | --- |
| COc1ccccc1N1CCN(CCCCOc2ccc3c(c2)NC(=O)CO3)CC1 [Compound 15a, 6-(4-(4-(2-Methoxyphenyl)piperazin-1-yl)butoxy)-2H-benzo[b][1,4]oxazin-3(4H)-one hydrochloride] | 262 | 118 | 0.97 | 0.65 | 0.98 | 0.3 |
| O=C1COc2ccc(OCCCCN3CCN(c4cccc(Cl)c4Cl)CC3)cc2N1 [Compound 15b, 6-(4-(4-(2,3-Dichlorophenyl)piperazin-1-yl)butoxy)-2H-benzo[b][1,4]oxazin-3(4H)-one hydrochloride] | 130 | 58.5 | 2.25 | 1.5 |  |  |
